Laboratory results reported in ChEMBL document CHEMBL4138216, “Design, synthesis and structure-activity relationship of a focused library of β-phenylalanine derivatives as novel eEF2K inhibitors with apoptosis-inducing mechanisms in breast cancer” (Eur J Med Chem, 2018).
The source made the active and inactive calls. The calls are words filed in the database; no cut-off is given here.

What was measured:
MDA-MB-231 [1] = assay: Induction of apoptosis in human MDA-MB-231 cells assessed as increase in PARP cleavage after 12 to 36 hrs by Western blot method; format: functional, cell-based
Mus musculus [2] = assay: Toxicity in BALB/c nude mouse xenografted with human MDA-MB-436 cells assessed as effect on kidney weight at 25 to 100 mg/kg, ig qd measured after 24 days; format: organism-based; details: in vivo, po, 576 h
MDA-MB-231 [3] = assay: Induction of apoptosis in human MDA-MB-231 cells assessed as downregulation of Bcl-2 expression after 12 to 36 hrs by Western blot method; format: functional, cell-based
MDA-MB-436 [4] = assay: Induction of apoptosis in human MDA-MB-436 cells assessed as membrane blebbing by phase contrast microscopy; format: functional, cell-based
Mus musculus [5] = assay: Toxicity in BALB/c nude mouse xenografted with human MDA-MB-231 cells assessed as body weight loss at 25 mg/kg, ig qd measured every 3 days for 24 days during compound dosing; format: organism-based; details: in vivo, po
MDA-MB-231 [6] = assay: Antiproliferative activity against human MDA-MB-231 cells xenografted in BALB/c nude mouse at 25 to 100 mg/kg, ig qd measured after 24 days by Ki-67 staining-based assay; format: functional, organism-based
MDA-MB-231 [7] = assay: Induction of apoptosis in human MDA-MB-231 cells assessed as membrane blebbing by phase contrast microscopy; format: functional, cell-based
MDA-MB-436 [8] = assay: Induction of apoptosis in human MDA-MB-436 cells assessed as increase in PARP cleavage after 12 to 36 hrs by Western blot method; format: functional, cell-based
Mus musculus [9] = assay: Toxicity in BALB/c nude mouse xenografted with human MDA-MB-436 cells assessed as body weight loss at 25 mg/kg, ig qd measured every 3 days for 24 days during compound dosing; format: organism-based; details: in vivo, po, 576 h
MDA-MB-231 [10] = assay: Induction of apoptosis in human MDA-MB-231 cells assessed as DNA condensation after 12 to 36 hrs by Hoechst 33258 staining-based fluorescence assay; format: functional, cell-based
MDA-MB-436 [11] = assay: Induction of apoptosis in human MDA-MB-436 cells assessed as increase in caspase-3 cleavage after 12 to 36 hrs by Western blot method; format: functional, cell-based
Mus musculus [12] = assay: Toxicity in BALB/c nude mouse xenografted with human MDA-MB-436 cells assessed as decrease in spleen weight at 100 mg/kg, ig qd measured after 24 days; format: organism-based; details: in vivo, po, 576 h
MDA-MB-436 [13] = assay: Induction of apoptosis in human MDA-MB-436 cells assessed as loss of mitochondrial membrane potential after 12 to 36 hrs by rhodamine123 staining-based flow cytometric method; format: functional, cell-based
MDA-MB-231 [14] = assay: Induction of apoptosis in human MDA-MB-231 cells assessed as loss of mitochondrial membrane potential after 12 to 36 hrs by rhodamine123 staining-based flow cytometric method; format: functional, cell-based
Mus musculus [15] = assay: Toxicity in BALB/c nude mouse xenografted with human MDA-MB-231 cells assessed as effect on liver weight at 25 to 100 mg/kg, ig qd measured after 24 days; format: organism-based; details: in vivo, po, 576 h
Mus musculus [16] = assay: Toxicity in BALB/c nude mouse xenografted with human MDA-MB-436 cells assessed as body weight loss at 50 to 100 mg/kg, ig qd measured every 3 days for 24 days during compound dosing; format: organism-based; details: in vivo, po, 576 h
MDA-MB-231 [17] = assay: Antitumor activity against human MDA-MB-231 cells xenografted in ig dosed BALB/c nude mouse assessed as tumor growth inhibition administered once a day measured every 3 days for 24 days during compound dosing; format: functional, organism-based
Mus musculus [18] = assay: Toxicity in BALB/c nude mouse xenografted with human MDA-MB-231 cells assessed as effect on kidney weight at 25 to 100 mg/kg, ig qd measured after 24 days; format: organism-based; details: in vivo, po, 576 h
MDA-MB-231 [19] = assay: Induction of apoptosis in human MDA-MB-231 cells assessed as upregulation of Bax expression after 12 to 36 hrs by Western blot method; format: functional, cell-based
MDA-MB-436 [20] = assay: Induction of apoptosis in human MDA-MB-436 cells assessed as formation of apoptotic bodies by phase contrast microscopy; format: functional, cell-based
MDA-MB-436 [21] = assay: Induction of apoptosis in human MDA-MB-436 cells assessed as DNA condensation after 12 to 36 hrs by Hoechst 33258 staining-based fluorescence assay; format: functional, cell-based
MDA-MB-231 [22] = assay: Induction of apoptosis in human MDA-MB-231 cells xenografted in BALB/c nude mouse assessed as increase in PARP cleavage at 25 to 100 mg/kg, ig qd measured after 24 days by Western blot method; format: functional, organism-based
Mus musculus [23] = assay: Toxicity in BALB/c nude mouse xenografted with human MDA-MB-231 cells assessed as decrease in spleen weight at 100 mg/kg, ig qd measured after 24 days; format: organism-based; details: in vivo, po, 576 h
MDA-MB-436 [24] = assay: Induction of apoptosis in human MDA-MB-436 cells assessed as downregulation of Bcl-2 expression after 12 to 36 hrs by Western blot method; format: functional, cell-based
MDA-MB-231 [25] = assay: Induction of apoptosis in human MDA-MB-231 cells assessed as increase in caspase-3 cleavage after 12 to 36 hrs by Western blot method; format: functional, cell-based
MDA-MB-231 [26] = assay: Induction of apoptosis in human MDA-MB-231 cells xenografted in BALB/c nude mouse at 25 to 100 mg/kg, ig qd measured after 24 days by TUNEL assay; format: functional, organism-based
MDA-MB-436 [27] = assay: Antitumor activity against human MDA-MB-436 cells xenografted in ig dosed BALB/c nude mouse assessed as tumor growth inhibition administered once a day measured every 3 days for 24 days during compound dosing; format: functional, organism-based
MDA-MB-231 [28] = assay: Induction of apoptosis in human MDA-MB-231 cells xenografted in BALB/c nude mouse assessed as increase in caspase-3 cleavage at 25 to 100 mg/kg, ig qd measured after 24 days by Western blot method; format: functional, organism-based
MDA-MB-436 [29] = assay: Induction of apoptosis in human MDA-MB-436 cells assessed as increase in caspase-8 cleavage after 12 to 36 hrs by Western blot method; format: functional, cell-based
MDA-MB-436 [30] = assay: Induction of apoptosis in human MDA-MB-436 cells assessed as upregulation of Bax expression after 12 to 36 hrs by Western blot method; format: functional, cell-based
MDA-MB-231 [31] = assay: Induction of apoptosis in human MDA-MB-231 cells assessed as increase in caspase-8 cleavage after 12 to 36 hrs by Western blot method; format: functional, cell-based
MDA-MB-436 [32] = assay: Antiproliferative activity against human MDA-MB-436 cells assessed as decrease in cell viability after 24 hrs by MTT assay; format: functional, cell-based; details: MDA-MB-436, 24 h
Mus musculus [33] = assay: Toxicity in BALB/c nude mouse xenografted with human MDA-MB-436 cells assessed as effect on liver weight at 25 to 100 mg/kg, ig qd measured after 24 days; format: organism-based; details: in vivo, po, 576 h
Mus musculus [34] = assay: In vivo inhibition of eEF2K phosphorylation in tumor of BALB/c nude mouse xenografted with human MDA-MB-231 cells at 25 to 100 mg/kg, ig qd measured after 24 days by immunohistochemical analysis; format: functional, organism-based
MDA-MB-231 [35] = assay: Induction of apoptosis in human MDA-MB-231 cells assessed as formation of apoptotic bodies by phase contrast microscopy; format: functional, cell-based
MDA-MB-231 [36] = assay: Induction of apoptosis in human MDA-MB-231 cells xenografted in BALB/c nude mouse assessed as decrease in pro-caspase-3 levels at 25 to 100 mg/kg, ig qd measured after 24 days by immunohistochemical analysis; format: functional, organism-based

SMILES: N#Cc1ccc(S(=O)(=O)NC(CC(=O)O)c2ccc(Cl)cc2Cl)cc1 (stereo unspecified)
- Activity (MDA-MB-231 [1]): Active
- Activity (Mus musculus [2]): Non-Toxic
- Activity (MDA-MB-231 [3]): Active
- Activity (MDA-MB-436 [4]): Active
- Activity (Mus musculus [5]): Toxic
- Activity (MDA-MB-231 [6]): Active
- Activity (MDA-MB-231 [7]): Active
- Activity (MDA-MB-436 [8]): Active
- Activity (Mus musculus [9]): Toxic
- Activity (MDA-MB-231 [10]): Active
- Activity (MDA-MB-436 [11]): Active
- Activity (Mus musculus [12]): Toxic
- Activity (MDA-MB-436 [13]): Active
- Activity (MDA-MB-231 [14]): Active
- Activity (Mus musculus [15]): Non-Toxic
- Activity (Mus musculus [16]): Non-Toxic
- TGI (MDA-MB-231 [17]): Dose-dependent effect
- Activity (Mus musculus [18]): Non-Toxic
- Activity (MDA-MB-231 [19]): Active
- Activity (MDA-MB-436 [20]): Active
- Activity (MDA-MB-436 [21]): Active
- Activity (MDA-MB-231 [22]): Active
- Activity (Mus musculus [23]): Toxic
- Activity (MDA-MB-436 [24]): Active
- Activity (MDA-MB-231 [25]): Active
- Activity (MDA-MB-231 [26]): Active
- TGI (MDA-MB-436 [27]): Dose-dependent effect
- Activity (MDA-MB-231 [28]): Active
- Activity (MDA-MB-436 [29]): Active
- Activity (MDA-MB-436 [30]): Active
- Activity (MDA-MB-231 [31]): Active
- IC50 (MDA-MB-436 [32]): 19.8 µM
- Activity (Mus musculus [33]): Non-Toxic
- inhibition (Mus musculus [34]): Active
- Activity (MDA-MB-231 [35]): Active
- Activity (MDA-MB-231 [36]): Active
